Several values for one entry are separate records, joined by “and”; a condition that tells them apart may be missing. Identical values can stand only once. Toxic doses and inconclusive results are not listed. How the source made its calls: active means survival T/C of 150% or more; inactive means T/C below 125% in these data.
Test system: P388 leukemia ip, CD2F1 mice, survival T/C
Assay: NCI In Vivo Anticancer Drug Screen. Data for tumor model P388 Leukemia (intraperitoneal) in CD2F1 (CDF1) mice
Settings: endpoint: median survival time, higher = longer survival
In short: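 Mice carrying the transplanted tumor received test compound or vehicle. Survival was recorded in each group, and the value is the treated-group measurement divided by that of the vehicle-treated control group.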

[1] = dose: 60.0 mg/kg/injection, schedule: Q01DX005 (ip), vehicle: Klucel (hydroxypropylcellulose) (HPC)
[2] = dose: 120.0 mg/kg/injection, schedule: Q01DX005 (ip), vehicle: Klucel (hydroxypropylcellulose) (HPC)
[3] = dose: 240.0 mg/kg/injection, schedule: Q01DX005 (ip), vehicle: Klucel (hydroxypropylcellulose) (HPC)
[4] = dose: 50.0 mg/kg/injection, schedule: Q01DX005 (ip), vehicle: saline
[5] = dose: 50.0 mg/kg/injection, schedule: Q01DX009 (ip), vehicle: saline
[6] = dose: 50.0 mg/kg/injection, schedule: Q01DX009 (ip), vehicle: Klucel (hydroxypropylcellulose) (HPC)
[7] = dose: 100.0 mg/kg/injection, schedule: Q01DX009 (ip), vehicle: Klucel (hydroxypropylcellulose) (HPC)
[8] = dose: 100.0 mg/kg/injection, schedule: Q04DX003 (ip), vehicle: Klucel (hydroxypropylcellulose) (HPC)
[9] = dose: 200.0 mg/kg/injection, schedule: Q04DX003 (ip), vehicle: Klucel (hydroxypropylcellulose) (HPC)
[10] = dose: 400.0 mg/kg/injection, schedule: Q04DX003 (ip), vehicle: Klucel (hydroxypropylcellulose) (HPC)
[11] = dose: 100.0 mg/kg/injection, schedule: Q04DX002 (ip), vehicle: saline with Tween-80
[12] = dose: 200.0 mg/kg/injection, schedule: Q04DX002 (ip), vehicle: saline with Tween-80
[13] = dose: 400.0 mg/kg/injection, schedule: Q04DX002 (ip), vehicle: saline with Tween-80
[14] = dose: 50.0 mg/kg/injection, schedule: Q01DX009 (ip), vehicle: saline with Tween-80
[15] = dose: 100.0 mg/kg/injection, schedule: Q01DX009 (ip), vehicle: saline with Tween-80
[16] = dose: 200.0 mg/kg/injection, schedule: Q01DX009 (ip), vehicle: saline with Tween-80
[17] = dose: 50.0 mg/kg/injection, schedule: Q01DX005 (ip), vehicle: Klucel (hydroxypropylcellulose) (HPC)
[18] = dose: 100.0 mg/kg/injection, schedule: Q01DX005 (ip), vehicle: Klucel (hydroxypropylcellulose) (HPC)
[19] = dose: 200.0 mg/kg/injection, schedule: Q01DX005 (ip), vehicle: Klucel (hydroxypropylcellulose) (HPC)

Measured: T/C

Cc1cc2nc(/N=C/c3nc(O)c(C)[nH]3)[nH]c2cc1C
inactive: dose: 30.0 mg/kg/injection, schedule: Q01DX005 (ip), vehicle: Klucel (hydroxypropylcellulose) (HPC) 103 % of control | [1] 98 % of control | [2] 99 % of control | [3] 104 % of control

CC(=O)Cc1ncn(-c2cc(C)on2)n1
inactive: [1] 111 % of control | [2] 113 % of control | [3] 100 % of control

CN(C)c1ccc(/C=C/c2ccc3ccccc3[n+]2C)cc1
inactive: dose: 1.0 mg/kg/injection, schedule: Q01DX009 (ip), vehicle: saline sonified 123 % of control | dose: 1.5 mg/kg/injection, schedule: Q01DX009 (ip), vehicle: saline sonified 123 % of control | dose: 2.3 mg/kg/injection, schedule: Q01DX009 (ip), vehicle: saline sonified 119 % of control | dose: 6.25 mg/kg/injection, schedule: Q04DX003 (ip), vehicle: saline sonified 100 % of control | dose: 12.5 mg/kg/injection, schedule: Q04DX003 (ip), vehicle: saline sonified 109 % of control | dose: 25.0 mg/kg/injection, schedule: Q04DX003 (ip), vehicle: saline sonified 113 % of control

CC(C)(C)NCC(O)c1ccc(O)c(CO)n1 (stereo not given)
inactive: [4] 95 % of control | dose: 100.0 mg/kg/injection, schedule: Q01DX005 (ip), vehicle: saline 102 % of control | dose: 200.0 mg/kg/injection, schedule: Q01DX005 (ip), vehicle: saline 95 % of control

O=c1ccn2ccccc2n1
inactive: [5] 95 % of control | dose: 50.0 mg/kg/injection, schedule: Q04DX003 (ip), vehicle: saline 91 % of control | dose: 100.0 mg/kg/injection, schedule: Q01DX009 (ip), vehicle: saline 86 % of control | dose: 100.0 mg/kg/injection, schedule: Q04DX003 (ip), vehicle: saline 100 % of control | dose: 200.0 mg/kg/injection, schedule: Q01DX009 (ip), vehicle: saline 95 % of control | dose: 200.0 mg/kg/injection, schedule: Q04DX003 (ip), vehicle: saline 91 % of control

CCCNC(=O)ON1C(=O)C2C3C=CC(C3)C2C1=O (stereo not given)
inactive: dose: 6.25 mg/kg/injection, schedule: Q01DX005 (ip), vehicle: Klucel (hydroxypropylcellulose) (HPC) 96 % of control | dose: 12.5 mg/kg/injection, schedule: Q01DX005 (ip), vehicle: Klucel (hydroxypropylcellulose) (HPC) 104 % of control | dose: 25.0 mg/kg/injection, schedule: Q01DX005 (ip), vehicle: Klucel (hydroxypropylcellulose) (HPC) 96 % of control

CCC(=O)OC1(c2ccccc2)CCP(C)(=S)CC1 (stereo not given)
inactive: [6] 97 % of control | [7] 106 % of control | dose: 200.0 mg/kg/injection, schedule: Q01DX009 (ip), vehicle: Klucel (hydroxypropylcellulose) (HPC) 101 % of control

O=C(Nc1ccc(Cl)c(Cl)c1)Nc1ccc(Oc2ccc(Cl)cc2Cl)cc1S(=O)(=O)O
inactive: [8] 91 % of control | [9] 100 % of control | [10] 95 % of control

COc1ccc(N2CCN(CC(O)COc3cc4c(c5c3CCCC5)CCCC4)CC2)cc1 (stereo not given)
inactive: [8] 104 % of control | [9] 94 % of control | [10] 108 % of control

COc1cc2c(c(OC)c1OC)C1=NNC(=O)C1(C)CC2 (stereo not given)
inactive: [8] 91 % of control | [9] 88 % of control | [10] 92 % of control

CCN=C(C)C1=C(O)c2ccccc2C1=O
inactive: [11] 97 % of control | [12] 98 % of control | [13] 98 % of control

CC1(C)CC(NC(=O)C(C)(C)Oc2ccc(Cl)cc2)CC(C)(C)N1
inactive: dose: 50.0 mg/kg/injection, schedule: Q01DX005 (ip), vehicle: saline with Tween-80 107 % of control | dose: 100.0 mg/kg/injection, schedule: Q01DX005 (ip), vehicle: saline with Tween-80 100 % of control | dose: 200.0 mg/kg/injection, schedule: Q01DX005 (ip), vehicle: saline with Tween-80 98 % of control

O=C1C=CC2(C=C1)CCN(C(=O)C(F)(F)F)Cc1cc3c(cc12)OCO3
inactive: [11] 97 % of control | [12] 91 % of control | [13] 93 % of control

O=C(O)c1ccc(NC(C[N+](=O)[O-])C(F)(F)C(F)(F)C(F)(F)F)cc1 (stereo not given)
inactive: dose: 100.0 mg/kg/injection, schedule: Q01DX001 (ip), vehicle: saline sonified 100 % of control | dose: 200.0 mg/kg/injection, schedule: Q01DX001 (ip), vehicle: saline sonified 100 % of control | dose: 400.0 mg/kg/injection, schedule: Q01DX001 (ip), vehicle: saline sonified 100 % of control

O=C(O)c1ccccc1C(=O)c1ccc(CBr)cc1
inactive: dose: 1.56 mg/kg/injection, schedule: Q01DX009 (ip), vehicle: saline with Tween-80 109 % of control | dose: 3.13 mg/kg/injection, schedule: Q01DX009 (ip), vehicle: saline with Tween-80 109 % of control | dose: 6.25 mg/kg/injection, schedule: Q01DX009 (ip), vehicle: saline with Tween-80 109 % of control and 113 % of control | dose: 6.25 mg/kg/injection, schedule: Q04DX003 (ip), vehicle: saline with Tween-80 91 % of control | dose: 12.5 mg/kg/injection, schedule: Q04DX003 (ip), vehicle: saline with Tween-80 95 % of control | dose: 25.0 mg/kg/injection, schedule: Q04DX003 (ip), vehicle: saline with Tween-80 108 % of control

CS(=O)(=O)CS(=O)CS(=O)CS(=O)CC(NC(=O)CCC(N)C(=O)O)C(=O)O (stereo not given)
inactive: dose: 12.5 mg/kg/injection, schedule: Q01DX005 (ip), vehicle: saline 96 % of control | dose: 25.0 mg/kg/injection, schedule: Q01DX005 (ip), vehicle: saline 98 % of control | [4] 97 % of control | dose: 100.0 mg/kg/injection, schedule: Q01DX005 (ip), vehicle: suspension in saline 108 % of control

CCOc1ccc(-n2c(=O)c(N=Nc3ccccc3OC)c(O)n(-c3ccccc3Cl)c2=S)cc1
inactive: dose: 100.0 mg/kg/injection, schedule: Q01DX001 (ip), vehicle: Klucel (hydroxypropylcellulose) (HPC) 102 % of control | dose: 200.0 mg/kg/injection, schedule: Q01DX001 (ip), vehicle: Klucel (hydroxypropylcellulose) (HPC) 101 % of control | dose: 400.0 mg/kg/injection, schedule: Q01DX001 (ip), vehicle: Klucel (hydroxypropylcellulose) (HPC) 105 % of control

CC(=O)N1c2ccccc2Sc2ccc3ccccc3c21
inactive: [14] 93 % of control | [15] 100 % of control | [16] 99 % of control

O=C/C(Cl)=C(/Cl)C(=O)O
inactive: dose: 2.5 mg/kg/injection, schedule: Q01DX009 (ip), vehicle: saline with Tween-80 110 % of control and 123 % of control | dose: 5.0 mg/kg/injection, schedule: Q01DX009 (ip), vehicle: saline with Tween-80 117 % of control and 121 % of control | dose: 10.0 mg/kg/injection, schedule: Q01DX009 (ip), vehicle: saline with Tween-80 120 % of control and 121 % of control

Nc1nc2c(ncn2[C@@H](CO)OC(CO)CO)c(=O)[nH]1
inactive: [17] 99 % of control | [18] 98 % of control | [19] 98 % of control

CCCCOCC(=O)OC
inactive: [14] 102 % of control | [15] 102 % of control | [16] 107 % of control

COc1cc(O)c2c(c1)C(=O)c1cc3c(c(O)c1C2=O)C(O)C(OC)C(C)(O)C3=O (stereo not given)
inactive: dose: 6.25 mg/kg/injection, schedule: Q01DX009 (ip), vehicle: Klucel (hydroxypropylcellulose) (HPC) 95 % of control | dose: 12.5 mg/kg/injection, schedule: Q01DX009 (ip), vehicle: Klucel (hydroxypropylcellulose) (HPC) 105 % of control | dose: 25.0 mg/kg/injection, schedule: Q01DX009 (ip), vehicle: Klucel (hydroxypropylcellulose) (HPC) 98 % of control | [6] 94 % of control | [7] 95 % of control

COc1ccc(Oc2cc3c(cc2OC)CCN(C)C3)cc1
inactive: dose: 12.5 mg/kg/injection, schedule: Q01DX009 (ip), vehicle: saline 108 % of control | dose: 25.0 mg/kg/injection, schedule: Q01DX009 (ip), vehicle: saline 104 % of control | [5] 99 % of control and 107 % of control

CC1(C)OC(=O)C(=Cc2ccc[nH]2)C(=O)O1
inactive: [17] 98 % of control | [18] 105 % of control | [19] 107 % of control

— PubChem BioAssay AID330 (DTP/NCI, 2004)
